Data on seven compounds can be found in patent US12655116B2, “Substituted isophthalic acid diamides” (Bayer Aktiengesellschaft, priority 2020, dated 2026).

As a reminder, the pest or weed control is the degree to which the test organism was suppressed or injured, in per cent.

One assay deals with ALOMY. As to the kind of experiment: Post-emergence herbicidal action against ALOMY. It counts as in vivo, Alopecurus myosuroides. The settings on record: Alopecurus myosuroides, 504 h, visual assessment about 3 weeks after treatment vs untreated controls; for pest or weed control at 5 g/ha: dosage 5 g/ha; for pest or weed control at 20 g/ha: dosage 20 g/ha; for pest or weed control at 80 g/ha: dosage 80 g/ha. The procedure, abridged:
(§1)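 Spray, one-leaf stage: WP or EC compound in water, 600–800 l/ha, 0.2% wetting agent. Plants held about 3 weeks in the greenhouse, then visually rated in percent of kill compared with untreated controls.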

A further assay concerns SETVI. Description: Post-emergence herbicidal action against SETVI. As to conditions: Setaria viridis, 504 h; for pest or weed control at 5 g/ha: dosage 5 g/ha; for pest or weed control at 20 g/ha: dosage 20 g/ha; for pest or weed control at 80 g/ha: dosage 80 g/ha. It counts as in vivo, Setaria viridis. The procedure, abridged:
as §1

The next assay relates to CYPES. Description: Pre-emergence herbicidal action against CYPES. It counts as in vivo. As to conditions: Cyperus esculentus, 504 h; for pest or weed control at 20 g/ha / pest or weed control at 80 g/ha: scored visually after 3 weeks, 100% = plants have died, 0% = like control plants. The text has this:
Seeds of monocotyledonous and dicotyledonous weed plants and crop plants are laid out in sandy loam soil in wood-fiber pots and covered with soil. The compounds of the invention, formulated in the form of wettable powders (WP) or as emulsion concentrates (EC), are then applied to the surface of the covering soil in the form of an aqueous suspension or emulsion at a water application rate equivalent to 600 to 800 l/ha, with addition of 0.2% wetting agent. After the treatment, the pots are placed in a greenhouse and kept under good growth conditions for the trial plants. The damage to the test plants is scored visually after a test period of 3 weeks by comparison with untreated controls (herbicidal activity in percent (%): 100% activity=the plants have died, 0% activity=like control plants). […] The tables below illustrate, in an illustrative manner, the post-emergence herbicidal action of the compounds of the invention, the herbicidal activity being stated in percent.

The subject of the next assay is POLCO. Description: Pre-emergence herbicidal action against POLCO. It counts as in vivo, Polygonum convolvulus. The settings on record: Fallopia convolvulus, 504 h; for pest or weed control at 80 g/ha: dosage 80 g/ha; for pest or weed control at 320 g/ha: dosage 320 g/ha. A digest of the protocol:
(§2)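 Pre-emergence soil-surface spray of formulated compound (WP or EC; 600 to 800 l/ha; 0.2% wetting agent) over seeds sown in sandy loam. After 3 weeks under greenhouse conditions, damage is estimated visually in percent against untreated plants.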

A further assay deals with harmful plants. Description: Comparative experiments: herbicidal post-emergence action versus compounds known from D1 (WO 2012/028579 A1). It counts as in vivo. On the set-up: key to Herbicidal action against ALOMY / Herbicidal action against AVEFA / Herbicidal action against LOLRI / Herbicidal action against MATIN / Herbicidal action against HORMU / Herbicidal action against ECHCG / Herbicidal action against SETVI / Herbicidal action against ABUTH / Herbicidal action against STEME / Herbicidal action against VIOTR / Herbicidal action against AMARE: % herbicidal action: 100 = plants died, 0 = like untreated control. The settings on record: 5 g a.i./ha. On the procedure: Seeds of monocotyledonous and dicotyledonous weed and crop plants are laid out in sandy loam soil in wood-fiber pots, covered with soil and cultivated in a greenhouse under good growth conditions. 2 to 3 weeks after sowing, the test plants are treated at the one-leaf stage. The compounds of the invention, formulated in the form of wettable powders (WP) or as emulsion concentrates (EC), are then sprayed onto the green parts of the plants in the form of an aqueous suspension or emulsion at a water application rate equivalent to 600 to 800 l/ha, with addition of 0.2% wetting agent. After the test plants have been left to stand in the greenhouse under optimal growth conditions for about 3 weeks, the action of the preparations is assessed visually in comparison to untreated controls (herbicidal action in percent (%): 100% activity=the plants have died, 0% activity=like control plants). […] The tables below illustrate, in an illustrative manner, the post-emergence herbicidal action of the compounds of the invention, the herbicidal activity being stated in percent. In the experiments that follow, herbicidal action of numerous inventive compounds and the structurally closest compounds known from D1 (WO 2012/028579 A1) were compared under the above-specified conditions by the pre-emergence and post-emergence method. The example numbers given in the tables relate to the compounds disclosed in the respective documents.

In the next assay the test system is ABUTH. As to the kind of experiment: Post-emergence herbicidal action against ABUTH. The settings on record: Abutilon theophrasti, 504 h, visual assessment about 3 weeks after treatment vs untreated controls; for pest or weed control at 5 g/ha: dosage 5 g/ha; for pest or weed control at 20 g/ha: dosage 20 g/ha; for pest or weed control at 80 g/ha: dosage 80 g/ha. It counts as in vivo, Abutilon theophrasti. The procedure, abridged: as §1

In the next assay the test system is PHBPU. As to the kind of experiment: Pre-emergence herbicidal action against PHBPU. It counts as in vivo, Pharbitis purpurea. The settings on record: Ipomoea purpurea, 504 h; for pest or weed control at 80 g/ha: dosage 80 g/ha; for pest or weed control at 320 g/ha: dosage 320 g/ha. A digest of the protocol:
as §2

`CNC(=O)c1c(C(F)(F)F)ccc(C(=O)Nc2nnnn2C)c1Cl` [Example 1-129]: the pest or weed control at 5 g/ha in the assay with ALOMY turned out to be 90%; in the assay on SETVI, 100%; with ABUTH, 100%. Also, the pest or weed control at 20 g/ha with ALOMY came out at 100%; in the assay with SETVI it was 100%; in the assay on CYPES, 90%; in the assay with ABUTH, 100%. The pest or weed control at 80 g/ha in the assay on ALOMY was found to be 100%; in the assay on SETVI, 100%; in the assay with CYPES it was 90%; in the assay on POLCO it was 100%; in the assay on ABUTH it was 100%; in the assay with PHBPU, 90%. Moreover, the pest or weed control at 320 g/ha with CYPES, with POLCO and with PHBPU was 100% throughout. In the assay on harmful plants (ABUTH), the “Herbicidal action against ABUTH” value was found to be 100. For the same compound, the “Herbicidal action against ALOMY” value in the assay on harmful plants was determined as 90. For the same compound, in the assay with harmful plants (ECHCG), the “Herbicidal action against ECHCG” value is 100. Besides, the “Herbicidal action against SETVI” value in the assay on harmful plants is 100. The “Herbicidal action against STEME” value in the assay on harmful plants (STEME) was determined as 100. For the same compound, the “Herbicidal action against VIOTR” value with harmful plants (VIOTR) turned out to be 80.
With `Cn1nnnc1NC(=O)c1ccc(C(F)(F)F)c(C(N)=O)c1Cl` [Example 1-338], the pest or weed control at 80 g/ha is 100% with ALOMY, 100% in the assay with SETVI, 90% with CYPES and 100% with ABUTH. Besides, the pest or weed control at 20 g/ha with SETVI stood at 80%; with ABUTH, 90%. Moreover, the pest or weed control at 320 g/ha in the assay on CYPES was 100%; with POLCO, 80%; with PHBPU, 80%. The compound further registered a pest or weed control at 5 g/ha in the assay with ABUTH of 90%.
For `CCn1nnnc1NC(=O)c1ccc(C(F)(F)F)c(C(=O)NC)c1Cl` [Example 2-129], the pest or weed control at 5 g/ha in the assay on ALOMY, in the assay with SETVI and in the assay with ABUTH was 100% throughout. The pest or weed control at 20 g/ha with ALOMY, with SETVI, in the assay with CYPES, in the assay with POLCO (dosage 20 g/ha) and in the assay with ABUTH was 100% each time. Besides, the pest or weed control at 80 g/ha was found to be 100% with ALOMY; 100% in the assay with SETVI; 100% with CYPES; 100% in the assay with POLCO; 100% with ABUTH; 90% in the assay with PHBPU. Also, the pest or weed control at 320 g/ha in the assay on CYPES, with POLCO and in the assay with PHBPU was 100% in each case. Also, the “Herbicidal action against ALOMY” value in the assay on harmful plants worked out at 100. In addition, the “Herbicidal action against AMARE” value in the assay on harmful plants (AMARE) was 100. Besides, in the assay with harmful plants (AVEFA), the “Herbicidal action against AVEFA” value was determined as 100. In addition, the “Herbicidal action against HORMU” value in the assay with harmful plants (HORMU) is 80. Also, the “Herbicidal action against MATIN” value with harmful plants (MATIN) was 80. Further, the “Herbicidal action against SETVI” value with harmful plants came to 100.
Consider `CCn1nnnc1NC(=O)c1ccc(C(F)(F)F)c(C(N)=O)c1Cl` [Example 2-338], for which the pest or weed control at 20 g/ha in the assay with ALOMY worked out at 80%; in the assay with SETVI, 80%; in the assay with ABUTH, 100%. Moreover, the pest or weed control at 80 g/ha came to 100% in the assay with ALOMY, 100% with SETVI, 90% in the assay on CYPES and 100% with ABUTH. Moreover, the pest or weed control at 320 g/ha with CYPES is 100%; in the assay with POLCO, 90%; in the assay on PHBPU, 80%. In the assay with ABUTH, this compound gave a pest or weed control at 5 g/ha of 100%.
Take `CCCn1nnnc1NC(=O)c1ccc(C(F)(F)F)c(C(=O)NC)c1Cl` [Example 3-129]: the pest or weed control at 20 g/ha in the assay with ALOMY is 80%; in the assay with SETVI, 100%; in the assay on ABUTH, 100%; with PHBPU (dosage 20 g/ha), 80%. The pest or weed control at 80 g/ha is 100% in the assay on ALOMY; 100% in the assay with SETVI; 100% in the assay with CYPES; 80% with POLCO; 100% with ABUTH; 90% in the assay on PHBPU. Moreover, the pest or weed control at 320 g/ha with CYPES, in the assay on POLCO and with PHBPU was 100% each time. Moreover, in the assay on ABUTH, the pest or weed control at 5 g/ha was 100%.
For `CCCn1nnnc1NC(=O)c1ccc(C(F)(F)F)c(C(N)=O)c1Cl` [Example 3-338], the pest or weed control at 80 g/ha in the assay on ALOMY was 100%; in the assay on SETVI, 90%; with CYPES, 90%; with POLCO, 80%; in the assay on ABUTH, 100%. Besides, the pest or weed control at 320 g/ha was found to be 90% in the assay on CYPES, 80% with POLCO and 100% with PHBPU. The pest or weed control at 5 g/ha with ABUTH is 90%. The compound also showed a pest or weed control at 20 g/ha in the assay on ABUTH of 90%.
Regarding `CNC(=O)c1c(C(F)(F)F)ccc(C(=O)Nc2nnc(C)o2)c1Cl` [Example 6-116], the pest or weed control at 20 g/ha worked out at 80% with ALOMY, 100% in the assay on SETVI, 100% in the assay on CYPES and 100% in the assay on ABUTH. Further, the pest or weed control at 80 g/ha with ALOMY, in the assay on SETVI, in the assay on CYPES and in the assay with ABUTH was 100% each time. The pest or weed control at 5 g/ha amounted to 100% in the assay on SETVI and 90% with ABUTH. The pest or weed control at 320 g/ha worked out at 100% with CYPES, 90% in the assay with POLCO and 80% in the assay with PHBPU.
